# Test results reported in ChEMBL document CHEMBL1201862, “PubChem BioAssay data set” (2004).
# Calls of active or inactive are those of the source.
# Tests used:
# [1] = target: T1, Short transient receptor potential channel 4 (Mus musculus, UniProt Q9QUQ5); test: block of DAMGO-driven TRPC4 calcium entry – cell-based, HEK293 TRPC4/mu-opioid, Fluo-4 calcium, dose response (AID 434942); assay type: functional;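 note: potency of inhibitors blocking the TRPC4 calcium response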
# T1 sequence (Q9QUQ5 whole entry): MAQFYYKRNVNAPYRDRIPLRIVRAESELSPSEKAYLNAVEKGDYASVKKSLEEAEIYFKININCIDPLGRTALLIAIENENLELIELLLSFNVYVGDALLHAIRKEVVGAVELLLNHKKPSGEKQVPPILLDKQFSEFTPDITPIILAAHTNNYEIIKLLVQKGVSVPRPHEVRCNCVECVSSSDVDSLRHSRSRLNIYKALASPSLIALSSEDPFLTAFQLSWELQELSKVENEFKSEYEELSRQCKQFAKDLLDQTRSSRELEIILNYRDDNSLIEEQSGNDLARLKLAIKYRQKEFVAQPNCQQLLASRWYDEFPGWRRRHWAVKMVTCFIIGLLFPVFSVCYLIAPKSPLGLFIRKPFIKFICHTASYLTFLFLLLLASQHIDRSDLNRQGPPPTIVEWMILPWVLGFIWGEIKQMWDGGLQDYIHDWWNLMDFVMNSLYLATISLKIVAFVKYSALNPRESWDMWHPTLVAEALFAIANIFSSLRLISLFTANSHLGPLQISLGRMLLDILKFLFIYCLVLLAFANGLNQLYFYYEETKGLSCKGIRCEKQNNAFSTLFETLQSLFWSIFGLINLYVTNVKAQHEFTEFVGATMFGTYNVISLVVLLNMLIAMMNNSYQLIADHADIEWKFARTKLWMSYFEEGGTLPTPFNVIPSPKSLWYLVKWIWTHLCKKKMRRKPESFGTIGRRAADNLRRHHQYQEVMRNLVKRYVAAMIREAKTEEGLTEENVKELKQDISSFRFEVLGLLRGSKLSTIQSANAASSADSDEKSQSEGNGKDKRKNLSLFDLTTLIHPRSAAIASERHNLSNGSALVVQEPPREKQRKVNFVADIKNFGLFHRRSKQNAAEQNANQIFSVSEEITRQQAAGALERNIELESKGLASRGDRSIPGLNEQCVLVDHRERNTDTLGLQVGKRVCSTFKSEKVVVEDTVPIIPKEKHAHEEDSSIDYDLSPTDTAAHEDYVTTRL
# [2] = target: Glyceraldehyde-3-phosphate dehydrogenase (Homo sapiens, UniProt P04406)
# Glyceraldehyde-3-phosphate dehydrogenase, sequence (P04406 whole entry): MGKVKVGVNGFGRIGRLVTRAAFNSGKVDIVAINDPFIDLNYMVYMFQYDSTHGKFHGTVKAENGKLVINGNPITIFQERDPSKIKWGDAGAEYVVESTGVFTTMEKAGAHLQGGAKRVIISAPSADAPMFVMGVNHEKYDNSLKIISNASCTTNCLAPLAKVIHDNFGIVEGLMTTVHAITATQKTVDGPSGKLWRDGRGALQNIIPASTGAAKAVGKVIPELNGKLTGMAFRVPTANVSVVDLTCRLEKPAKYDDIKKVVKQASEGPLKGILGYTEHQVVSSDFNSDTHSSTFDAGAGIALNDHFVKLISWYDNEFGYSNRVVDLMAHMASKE
# [3] = THP-1 cell cytotoxicity, dose response, cytotoxicity control for non-replicating M. tuberculosis project (AID 489025); assay type: functional
# HEK293 = test: EBV LMP1 TES2 canonical NF-kB signalling blockers – cell-based, HEK293, luciferase, cherry-pick, dose response (AID 588343); assay type: functional; conditions: Homo sapiens
# [4] = target: T2, RNA-binding protein pos-1 (Caenorhabditis elegans, UniProt G5EF15); test: disruptors of C. elegans POS-1 RNA interaction – biochemical, fluorescence polarization, dose response (AID 1964);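 note: purified POS-1 fused to maltose binding protein made in E. coli; potency of compounds blocking POS-1 binding to fluorescent RNA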
# T2 sequence (G5EF15 whole entry): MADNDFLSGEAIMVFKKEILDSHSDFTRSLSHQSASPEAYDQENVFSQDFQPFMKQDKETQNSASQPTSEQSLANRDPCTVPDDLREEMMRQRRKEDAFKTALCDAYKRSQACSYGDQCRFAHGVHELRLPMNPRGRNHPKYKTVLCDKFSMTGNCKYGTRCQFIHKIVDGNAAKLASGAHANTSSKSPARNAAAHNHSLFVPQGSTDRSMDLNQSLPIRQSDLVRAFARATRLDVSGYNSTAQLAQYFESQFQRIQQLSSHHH
# [5] = target: T3, Zinc finger protein mex-5 (Caenorhabditis elegans, UniProt Q9XUB2); test: potency of MEX-5 RNA-binding blockers – biochemical, C. elegans, fluorescence polarization, dose response (AID 1960)
# T3 sequence (Q9XUB2 whole entry): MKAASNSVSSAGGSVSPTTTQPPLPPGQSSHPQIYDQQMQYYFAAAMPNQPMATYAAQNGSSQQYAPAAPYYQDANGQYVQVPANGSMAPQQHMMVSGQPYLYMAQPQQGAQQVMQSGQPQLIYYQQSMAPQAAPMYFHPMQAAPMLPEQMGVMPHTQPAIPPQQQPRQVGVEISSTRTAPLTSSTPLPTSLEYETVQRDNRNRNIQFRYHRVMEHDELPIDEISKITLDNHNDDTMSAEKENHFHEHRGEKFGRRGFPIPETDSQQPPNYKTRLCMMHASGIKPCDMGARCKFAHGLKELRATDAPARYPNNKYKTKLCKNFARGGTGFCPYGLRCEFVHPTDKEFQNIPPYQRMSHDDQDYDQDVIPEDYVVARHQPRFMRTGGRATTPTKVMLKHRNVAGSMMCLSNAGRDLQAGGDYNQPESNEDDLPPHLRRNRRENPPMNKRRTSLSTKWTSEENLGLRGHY
# Genome polyprotein = Genome polyprotein (dengue virus type 2, UniProt P29990); test: flavivirus cap methylation enzyme inhibition – biochemical, confirmation dose response, primary screen (AID 588689); assay type: functional
# Genome polyprotein, sequence (P29990 2492-3391 limits assumed): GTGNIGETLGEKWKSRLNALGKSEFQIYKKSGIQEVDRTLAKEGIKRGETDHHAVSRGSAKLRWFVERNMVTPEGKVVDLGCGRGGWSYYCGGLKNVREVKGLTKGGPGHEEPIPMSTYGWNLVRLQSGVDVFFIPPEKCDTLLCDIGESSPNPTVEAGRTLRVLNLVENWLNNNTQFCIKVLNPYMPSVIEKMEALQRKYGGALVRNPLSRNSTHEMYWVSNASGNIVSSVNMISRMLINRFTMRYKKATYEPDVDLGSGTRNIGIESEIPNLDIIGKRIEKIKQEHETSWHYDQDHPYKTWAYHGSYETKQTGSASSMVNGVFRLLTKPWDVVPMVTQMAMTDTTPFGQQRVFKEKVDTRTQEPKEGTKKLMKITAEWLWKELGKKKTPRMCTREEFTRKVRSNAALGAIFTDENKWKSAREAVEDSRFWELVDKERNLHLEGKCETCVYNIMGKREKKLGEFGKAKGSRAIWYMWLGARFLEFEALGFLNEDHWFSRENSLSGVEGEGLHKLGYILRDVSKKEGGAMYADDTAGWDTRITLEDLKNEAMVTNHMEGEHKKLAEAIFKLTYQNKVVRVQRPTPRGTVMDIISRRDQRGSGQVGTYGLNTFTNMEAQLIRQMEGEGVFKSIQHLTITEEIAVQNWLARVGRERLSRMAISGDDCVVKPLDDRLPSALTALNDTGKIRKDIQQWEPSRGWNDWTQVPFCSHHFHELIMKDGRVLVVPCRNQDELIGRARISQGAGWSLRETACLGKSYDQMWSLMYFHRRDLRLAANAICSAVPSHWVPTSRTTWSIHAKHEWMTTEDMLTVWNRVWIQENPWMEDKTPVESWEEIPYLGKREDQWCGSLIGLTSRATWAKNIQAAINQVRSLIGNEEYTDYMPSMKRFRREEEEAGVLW
# [6] = NIH-3T3 fibroblast cytotoxicity, dose response, cytotoxicity control, cell-based, fluorescence, Alamar Blue, secondary assay (AID 2327); assay type: functional;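 note: NIH-3T3 mouse fibroblasts cultured with fluconazole at 8 µg/mL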
# [7] = test system: Streptococcus sp. 'group A'; test: Streptococcus pyogenes SK(-)GAS viability under kanamycin – luminescence, BacTiterGlo, confirmation, counter-screen for streptokinase expression inhibitor project, dose response (AID 1900); assay type: functional, organism-based
# BJ [8] = test: BJ-TERT fibroblast viability loss – cell-based, RAS-independent, luminescence, dose response (AID 1933); assay type: functional; conditions: Homo sapiens
# Streptokinase A = target: T4, Streptokinase A (Streptococcus pyogenes serotype M1, UniProt P10520); test: viability-normalized secreted streptokinase activity reduction – plasminogen activation absorbance, OD405, dose response (AID 1914); assay type: functional, Streptococcus pyogenes M1 GAS;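 note: secreted streptokinase activity via plasminogen activation per viability signal from cell pellet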
# T4 sequence (P10520 whole entry): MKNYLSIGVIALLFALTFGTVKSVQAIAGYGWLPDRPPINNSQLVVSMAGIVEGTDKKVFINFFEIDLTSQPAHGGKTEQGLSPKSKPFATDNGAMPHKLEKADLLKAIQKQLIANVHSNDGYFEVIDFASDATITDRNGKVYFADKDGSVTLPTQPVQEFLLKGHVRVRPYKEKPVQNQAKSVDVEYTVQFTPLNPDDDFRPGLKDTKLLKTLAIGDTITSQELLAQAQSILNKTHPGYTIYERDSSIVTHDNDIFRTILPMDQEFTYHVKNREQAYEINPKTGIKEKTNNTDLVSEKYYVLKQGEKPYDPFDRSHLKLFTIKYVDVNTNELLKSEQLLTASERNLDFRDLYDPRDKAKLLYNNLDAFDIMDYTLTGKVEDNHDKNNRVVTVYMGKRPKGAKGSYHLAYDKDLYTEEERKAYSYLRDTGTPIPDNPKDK
# BJ [9] = test: cells; assay type: functional, cell-based; conditions: Homo sapiens
# Large T antigen = Large T antigen (Simian virus 40, UniProt P03070); assay type: functional, Betapolyomavirus macacae;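 note: Confirmatory-stage PubChem screen for compounds that inhibit SV40 T antigen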
# Large T antigen, sequence (P03070 whole entry): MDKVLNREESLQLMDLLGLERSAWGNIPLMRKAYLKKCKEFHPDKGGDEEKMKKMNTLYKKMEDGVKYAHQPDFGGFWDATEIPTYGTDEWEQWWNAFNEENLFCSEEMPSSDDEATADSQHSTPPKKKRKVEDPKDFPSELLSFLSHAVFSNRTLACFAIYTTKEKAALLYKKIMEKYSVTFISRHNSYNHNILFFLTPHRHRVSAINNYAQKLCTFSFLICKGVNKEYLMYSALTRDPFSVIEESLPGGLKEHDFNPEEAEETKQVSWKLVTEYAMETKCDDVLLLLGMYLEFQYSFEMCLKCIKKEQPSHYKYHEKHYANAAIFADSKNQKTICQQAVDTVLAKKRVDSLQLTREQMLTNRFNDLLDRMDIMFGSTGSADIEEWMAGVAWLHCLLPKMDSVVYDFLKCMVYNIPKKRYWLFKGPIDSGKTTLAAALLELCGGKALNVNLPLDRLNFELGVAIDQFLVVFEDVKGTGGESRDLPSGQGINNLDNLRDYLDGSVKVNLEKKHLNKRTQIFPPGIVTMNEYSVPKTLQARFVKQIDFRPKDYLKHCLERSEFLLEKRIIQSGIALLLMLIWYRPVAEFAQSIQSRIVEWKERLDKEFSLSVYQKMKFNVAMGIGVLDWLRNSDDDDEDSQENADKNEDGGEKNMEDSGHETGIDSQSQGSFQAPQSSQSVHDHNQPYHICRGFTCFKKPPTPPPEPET
# [10] = DRD fibroblast viability loss – cell-based, non-viral oncogenic, luminescence, dose response (AID 1934); assay type: functional; conditions: Homo sapiens
# Streptococcus = test: GAS UMAA2166 growth inhibition – luminescence, BacTiterGlo, counter-screen for streptokinase expression inhibitor project, dose response (AID 1915); assay type: functional, organism-based;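 note: potency for reduction of bacterial viability or growth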
# [11] = target: Heat shock protein HSP 90-alpha (Homo sapiens, UniProt P07900); assay type: functional, organism-based
# INS1 = test: INS-1E survival protection against cytokine death – cell-based, luminescence, retest, dose response (AID 449756); assay type: functional; conditions: Rattus norvegicus;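 note: cell death triggered by IL-1 beta plus TNF-alpha plus IFN-gamma mixture; protective hits raise ATP signal compared with cytokine alone wells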
# Cytochrome P450 3A4 = Cytochrome P450 3A4 (Homo sapiens, UniProt P08684); conditions: Potency;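 note: confirmatory qHTS run detecting inhibitors and substrates of CYP3A4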
# Cytochrome P450 3A4, sequence (P08684 whole entry): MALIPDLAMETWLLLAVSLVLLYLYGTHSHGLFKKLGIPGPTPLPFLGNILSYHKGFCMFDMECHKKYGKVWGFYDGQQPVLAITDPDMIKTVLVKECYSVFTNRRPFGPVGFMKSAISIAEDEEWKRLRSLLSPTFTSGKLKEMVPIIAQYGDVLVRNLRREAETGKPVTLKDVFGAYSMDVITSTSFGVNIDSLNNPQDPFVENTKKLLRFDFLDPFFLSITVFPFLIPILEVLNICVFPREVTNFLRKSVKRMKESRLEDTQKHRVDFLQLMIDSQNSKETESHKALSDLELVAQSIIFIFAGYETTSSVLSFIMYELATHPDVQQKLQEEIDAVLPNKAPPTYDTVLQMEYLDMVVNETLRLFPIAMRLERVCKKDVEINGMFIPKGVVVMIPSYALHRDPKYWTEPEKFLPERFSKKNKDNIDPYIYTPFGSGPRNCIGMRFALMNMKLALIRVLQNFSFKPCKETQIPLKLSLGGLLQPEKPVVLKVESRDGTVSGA
# [12] = viability of PTEN-deleted HCT116 cells – cell-based, HCT116 PTEN knockout, dose response (AID 1047); assay type: functional;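 note: HCT116 colon tumor cells with PTEN knocked out; cells exposed to compound for 60 hours before readout; potency for loss of cell viability measured by luminescence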
# [13] = viability of HCT116 lacking mutant beta-catenin – cell-based, human colon tumor, dose response (AID 1045); assay type: functional;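 note: HCT116 colon tumor cells with beta catenin knocked out; cells exposed to compound for 60 hours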
# BJ [14] = test: BJ-TERT-LT-ST fibroblast viability loss – cell-based, RAS-independent, luminescence, dose response (AID 1935); assay type: functional; conditions: Homo sapiens;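 note: BJ fibroblasts immortalized with TERT plus LT and ST oncogenes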
smiles,measurement,setting,value
Cc1cccn2cc(-c3c[nH]c4ccccc34)nc12,EC50,[1],5.96 µM (active)
CC1CC(C)(C)NCCNC(C)CC(C)(C)NCCN1 (stereo unspecified),IC50,[2],> 10 µM (inconclusive)
Cc1ccc(CNC(C)c2ccccc2)cc1 (stereo unspecified),EC50,[1],6.68 µM (active)
Cc1nc(Cl)nc(N(C)c2ccccc2)c1[N+](=O)[O-],CC50,[3],22.9 µM (active)
same,EC50,[1],13.3 µM (active)
Cc1c(NC(=O)c2cc(-c3cccs3)nc3ccccc23)c(=O)n(-c2ccccc2)n1C,AC50,HEK293,> 350 µM (inactive)
O=C(O)c1cccc(-n2cccc2C=C2C(=O)c3ccccc3C2=O)c1,EC50,[4],37 µM (active)
same,EC50,[5],48.5 µM (active)
Cc1cccc2nc(CSc3ccc(Cl)cc3)cn12,EC50,[1],4.22 µM (active)
COc1cccc(/C=C2/C(=O)NN(c3ccc(C)c(C)c3)C2=O)c1,IC50,Genome polyprotein,> 100 µM (active)
O=C(/C=C/c1cccc(Cl)c1)c1ccc([N+](=O)[O-])o1,EC50,[6],4.56 µM (inconclusive)
same,EC50,[7],3.18 µM (active)
same,EC50,BJ [8],> 150 µM (inconclusive)
same,EC50,Streptokinase A,3.36 µM (active)
same,EC50,BJ [9],9.18 µM (inconclusive)
same,IC50,Large T antigen,40.9 µM (active)
same,EC50,[10],2.5 µM (inconclusive)
same,EC50,Streptococcus,6.98 µM (active)
same,AC50,[11],1.28 µM (active)
same,AC50,INS1,2.31 µM (active)
Oc1cc(Cl)c(Cl)c(Cl)c1Cl,AC50,[11],2.06 µM (active)
same,AC50,Cytochrome P450 3A4,12.6 µM (inconclusive)
N=c1c(S(=O)(=O)c2ccccc2)cc2c(=O)n3ccccc3nc2n1Cc1cccnc1,EC50,[4],68.1 µM (inconclusive)
same,EC50,[5],6.91 µM (inconclusive)
Brc1cc2c(cc1C1Nc3ccccc3C3C=CCC31)OCO2 (stereo unspecified),EC50,[4],> 300 µM (not active)
same,EC50,[7],7.1 µM (active)
same,EC50,[5],> 300 µM (not active)
same,EC50,Streptokinase A,2.55 µM (active)
same,EC50,Streptococcus,25.4 µM (active)
N#Cc1c(SC(C(=O)O)c2ccccc2)nc2c(c1-c1cccs1)CCCC2 (stereo unspecified),IC50,Genome polyprotein,39.2 µM (active)
COc1cc(C(=O)N2CCN(c3ccc(C)cc3C)CC2)cc(OC)c1OC,EC50,BJ [8],11.9 µM (active)
same,EC50,BJ [9],138 µM (inconclusive)
same,EC50,[12],2.65 µM (active)
same,EC50,[13],3.45 µM (active)
same,EC50,BJ [14],21.8 µM (inconclusive)
same,EC50,[10],3.97 µM (active)
O=C(Cc1ccc(Br)cc1)NCc1ccccc1,EC50,BJ [8],11.9 µM (active)
same,EC50,BJ [9],56.3 µM (inconclusive)
same,EC50,BJ [14],45.4 µM (inconclusive)
same,EC50,[10],4.57 µM (active)
CCCSc1nc(N)nc(-c2cccs2)c1C#N,EC50,[1],2.66 µM (active)
